For one molecule, Activity and ΔTm results are on record in ChEMBL document CHEMBL4732026, “Benzimidazole-1,2,3-triazole hybrid molecules: synthesis and study of their interaction with G-quadruplex DNA” (RSC Med Chem, 2021).

Active and inactive are the calls of the source. No cut-off for these calls is given here.

What is called ΔTm is the shift of the melting midpoint relative to a reference.

The test system of data set [1] is Quadruplex DNA. The data set can be described thus: Binding affinity to c-Myc G-quadruplex DNA (unknown origin) assessed as increase in viscosity at 15 uM by EtBr/Hoechst 33342 method. In kind it is nucleic-acid assay.
For data set [2], the system named is Quadruplex DNA. Description: Binding affinity to Tel Q G-quadruplex DNA (unknown origin) assessed as increase in intensity of positive and negative peaks at 10 to 40 uM by circular dichroism spectra. The format is nucleic-acid assay. The settings on record: dose 10-40 µM. On the technique in general: Circular dichroism is widely used to follow secondary structure.

In data set [3] the test system is dsDNA. Description: Stabilization of dsDNA (unknown origin) assessed as change in melting temperature at 8.5 uM incubated for 5 mins by UV-visible thermal denaturation study. The format is nucleic-acid assay.
Data set [4] concerns CHO-K1. Description: Induction of apoptosis in CHO-K1 cells assessed as late apoptic cells at 60 uM after 48 hrs by Annexin V based flow cytometric analysis (reference value: 1.01%). In kind it is cell-based, Cricetulus griseus. The settings on record: chinese hamster, cho-k1, 48 h.
The test system of data set [5] is CHO-K1. Description: Induction of apoptosis in CHO-K1 cells assessed as necrotic cells at 65 uM after 48 hrs by Annexin V based flow cytometric analysis (reference value: 0.70%). In kind it is cell-based, Cricetulus griseus. The settings on record: chinese hamster, cho-k1, 48 h. In general terms: Flow cytometry measures light scatter and fluorescence of single cells or particles in a stream.

Data set [6] has as its system Quadruplex DNA. The data set can be described thus: Stabilization of Tel Q G-quadruplex DNA (unknown origin) assessed as change in melting temperature at 8.5 uM incubated for 5 mins by UV-visible thermal denaturation study. The format is nucleic-acid assay.
Data set [7] concerns dsDNA. Description: Stabilization of double strand DNA (unknown origin) assessed as increase in life time of DNA and compound complex at 8.5 uM incubated for 5 mins by fluorescence lifetime study. In kind it is nucleic-acid assay.
Data set [8] concerns dsDNA. Description: Binding affinity to double strand DNA (unknown origin) assessed as increase in viscosity at 15 uM by EtBr/Hoechst 33342 method. The format is nucleic-acid assay.
In data set [9] the test system is PC-3. The data set can be described thus: Induction of apoptosis in human PC-3 cells assessed as apoptotic cells at 55 uM incubated for 48 hrs by AnnexinV based flow cytometric analysis (reference value: 10.43%). In kind it is functional.
Data set [10] concerns PC-3. The data set can be described thus: Induction of apoptosis in human PC-3 cells assessed as necrotic cells at 55 uM after 48 hrs by Annexin V based flow cytometric analysis (reference value: 0.79%). In kind it is functional.
Data set [11] concerns PC-3. Description: Induction of apoptosis in human PC-3 cells assessed as late apoptic cells at 55 uM after 48 hrs by Annexin V based flow cytometric analysis (reference value: 9.24%). The format is functional.
For data set [12], the system named is CHO-K1. Description: Induction of apoptosis in CHO-K1 cells assessed as early apoptic cells at 60 uM after 48 hrs by Annexin V based flow cytometric analysis (reference value: 4.58%). In kind it is cell-based, Cricetulus griseus. The settings on record: chinese hamster, cho-k1, 48 h.
The subject of data set [13] is CHO-K1. Description: Induction of apoptosis in CHO-K1 cells assessed as necrotic cells at 60 uM after 48 hrs by Annexin V based flow cytometric analysis (reference value: 0.70%). The format is cell-based, Cricetulus griseus. The settings on record: chinese hamster, cho-k1, 48 h.
In data set [14] the test system is PC-3. The data set can be described thus: Induction of apoptosis in human PC-3 cells assessed as late apoptic cells at 50 uM after 48 hrs by Annexin V based flow cytometric analysis (reference value: 9.24%). In kind it is functional.

On to `O=C(Cn1cc(CSc2nc3cc(OC(F)F)ccc3[nH]2)nn1)NC1CCCCC1`, for which the result in data set [1], in data set [2] and in [7] was Active. For the same molecule, the results for the shift in melting temperature (ΔTm) in [3] and in data set [6] were 0 °C and 14 °C, respectively. In addition, the Activity in [4] is on record as 1.62%; in data set [5], 1.72%; in [9] it was 18.62%; in data set [10], 2.64%; in [11], 13.75%; in [12], 10.39%. In addition, the Activity in data set [13] is listed as 1.97%; in [14] it was 9.39%. In addition, in [8], the result was inactive.
